Experimental data: patent US12023390B2, “Isomerically pure 18F-labelled tetrahydrofolates” (MERCK PATENT GMBH, priority 2017, dated 2024)
Like-named read-outs stand apart in the source and are kept apart here.

How the values were obtained:
[1] = Distribution coefficient (log D7.4), shake flask method; format: physicochemical; settings: n-octanol / phosphate buffer pH 7.4, room temperature
Procedure: The samples were shaken for 15 min in an overhead shaker and centrifuged for 3 min at 5000 rpm to separate the two phases. Aliquots (50 μL) of both phases were added to Eppendorftubes and then, analyzed in a γ-counter (Wizard, PerkinElmer). The partition coefficient is expressed as the radio between the radioactivity concentrations (cpm/mL) of the n-octanol and the phosphate buffer phase. Values represent the mean±standard deviation of sextuples from two independent experiments.

FR-positive KB cells = assay: Cell uptake and internalization using FR-positive KB cells; format: cell-based
Procedure: (§1) In order to investigate FR-specific cell uptake and internalization, cell uptake and internalization of 6R-[^18F]1 and 6S-[^18F]1 were carried out using FR-positive KB cells. Cell uptake increased constantly over time for both diastereoisomers resulting in an uptake of about 60% (calculated per 0.3 mg of protein) of total added radioactivity after 3 h of incubation at 37° C. (FIG. 22).

[2] = Metabolite studies / in vivo stability (radio-UPLC of blood plasma, liver, urine); set-up: species or system mice
Procedure: as §1
The folate radiotracer 6S/6R-[^18F]5 (1:1 ratio, 53.7-52.3 MBq; 0.62-1.15 nmol) were intravenously injected into mice in order to determine the in vivo stability of the tracers. […] Ice-cold methanol containing 10 mg/mL 2-mercaptoethanol and 0.025% (v/v) ammonium hydroxide was added to the blood plasma, homogenized liver and urine in order to precipitate the proteins.^6 After centrifugation, the supernatants of the blood plasma, liver and urine samples were analyzed by radio-UPLC (FIG. 4).

RT16 (FR-α) = target: T1, RT16 (FR-α) (Homo sapiens, UniProt P15328); assay: Cell uptake and internalization in FR-α transfected CHO cells (RT16); format: cell-based
T1 construct: expressed in transfected cells; host or cells: CHO cells (RT16)
Procedure: (§2) The uptake and internalization of the oxidized (^18F-AzaFol) and reduced ^18F-folates (6S-isomer and 6R-isomer of ^18F-5-Me-Aza-THF) in D4 and RT16 cells which express the FR-α and FR-β, […] was studied. Both cell lines were kindly provided by Larry Matherly Wayne State University, Detroit, U.S.; Golani et al., J Med Chem, 2016, 59, 7856.
The internalized fraction of the radiotracers reached 8-10% after 1 h and increased slightly up to 9-12% after 3 h incubation.

D4 (FR-β) = target: T2, D4 (FR-β) (Homo sapiens, UniProt P14207); assay: Cell uptake and internalization in FR-β transfected CHO cells (D4); format: cell-based; settings: for uptake into D4 cells (in words): D4 (FR-β) cells; for internalized fraction / uptake: D4 cells
T2 construct: expressed in transfected cells; host or cells: CHO cells (D4)
Procedure: as §2
When using D4 cells that express the FR-β, the uptake of ^18F-AzaFol and the 6S-isomer of the reduced radiotracer reached approximately 70% after 1 h incubation and 80% after 3 h incubation. The internalized fraction of ^18F-AzaFol and the 6S-isomer of the reduced version was 20% and 12%, respectively, after 1 h incubation. These numbers increased slightly when the incubation time was extended to 3 h. […] No change was observed after additional two hours of incubation.

KB tumor-bearing mice = assay: Biodistribution studies in KB tumor-bearing mice
Procedure: Biodistribution studies were performed 2 weeks after cell inoculation. The ^18F-folate radiotracers (˜5 MBq/mouse) were injected in a volume of 100 μL into a lateral tail vein. The animals were sacrificed at 30 min, 60 min and 90 min after administration of radiotracers. Selected tissues and organs were collected, weighed, and radioactivity was measured using a γ-counter. The results were listed as a percentage of the injected radioactivity per gram of tissue mass (% IA/g), using counts of a defined volume of the original injection solution measured at the same time resulting in decay corrected values.

FR-α = target: T3, FR-α (Homo sapiens, UniProt P15328); assay: Displacement assay with [^3H]folic acid using KB cells; format: binding; settings: for fold lower affinity to the FR-α compared to the oxidized form: versus 3′-aza-2′-fluorofolic acid
T3 construct: endogenous in cells; host or cells: KB cells

[3] = KB tumor-bearing mice, 30 min p.i.
[4] = KB tumor-bearing mice, 30 min p.i., ratio
[5] = KB tumor-bearing mice, 60 min p.i.
[6] = KB tumor-bearing mice, 60 min p.i. & Folic Acid (100 μg 10 min prior)
[7] = KB tumor-bearing mice, 60 min p.i., ratio
[8] = KB tumor-bearing mice, 90 min p.i.
[9] = KB tumor-bearing mice, 90 min p.i., ratio
[10] = KB tumor-bearing mice, 90 min p.i., listed as 6R-form
[11] = KB tumor-bearing mice, 90 min p.i., listed as 6R-isomer
[12] = KB cells, displacement of [^3H]folic acid, n = 3

T3 sequence (P15328 25-234): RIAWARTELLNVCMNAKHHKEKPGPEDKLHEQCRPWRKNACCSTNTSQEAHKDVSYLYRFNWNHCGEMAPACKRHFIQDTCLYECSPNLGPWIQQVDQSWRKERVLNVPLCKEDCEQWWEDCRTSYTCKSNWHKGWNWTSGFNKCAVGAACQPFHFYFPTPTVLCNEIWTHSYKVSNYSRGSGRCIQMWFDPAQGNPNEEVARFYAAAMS
T2 sequence (P14207 17-230): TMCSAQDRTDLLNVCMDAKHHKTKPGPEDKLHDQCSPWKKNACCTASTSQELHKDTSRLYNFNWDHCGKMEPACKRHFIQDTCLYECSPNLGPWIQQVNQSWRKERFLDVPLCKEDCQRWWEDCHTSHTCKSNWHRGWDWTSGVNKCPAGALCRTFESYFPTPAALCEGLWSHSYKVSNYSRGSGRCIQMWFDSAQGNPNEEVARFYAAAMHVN
T1 sequence (P15328 25-234): as the sequence (P15328 25-234) above

## 6R-3′-aza-2′-[^18F]fluoro-5-MTHF [6R-[^18F]1]
[1]
  logD7.4: −4.6 ± 0.1
FR-positive KB cells; 37° C.
  internalized activity: around 8%
FR-positive KB cells; 3 h incubation at 37° C., calculated per 0.3 mg of protein
  cell uptake (% of total added radioactivity): about 60%
[2]; samples taken p.i.
  in vivo stability: Only intact parent compounds were found
RT16 (FR-α)
  uptake into RT16 cells (in words): higher uptake
D4 (FR-β)
  uptake into D4 cells (in words): very low
D4 (FR-β); 1 h incubation
  internalized fraction: about 1%
  uptake: 3%
KB tumor xenografts; already 1 h p.i.
  PET/CT: KB tumor xenograft uptake: High KB tumor xenograft uptake
KB tumor xenografts; folic acid injected 10 minutes prior to radiotracer
  PET/CT: blocking studies, uptake in all FR-positive tissues: remarkably reduced uptake
KB tumor-bearing mice; [3]
  Biodistribution: Blood: 3.13 ± 0.31 % IA/g
  Biodistribution: Bone: 2.73 ± 0.14 % IA/g
  Biodistribution: Feaces: 12.2 ± 3.54 % IA/g
  Biodistribution: Gall Bladder: 37.5 ± 11.7 % IA/g
  Biodistribution: Heart: 2.75 ± 0.33 % IA/g
  Biodistribution: Intestines: 7.68 ± 1.28 % IA/g
  Biodistribution: KB Tumor: 13.3±1.80 % IA/g
  Biodistribution: Kidneys: 34.5 ± 2.45 % IA/g
  Biodistribution: Liver: 14.3 ± 1.36 % IA/g
  Biodistribution: Lung: 3.37 ± 0.32 % IA/g
  Biodistribution: Muscle: 1.54 ± 0.13 % IA/g
  Biodistribution: Salivary glands: 7.16 ± 0.51 % IA/g
  Biodistribution: Spleen: 8.25 ± 0.96 % IA/g
  Biodistribution: Stomach: 2.20 ± 0.23 % IA/g
KB tumor-bearing mice; [4]
  Tu-to-blood: 4.27 ± 0.61
  Tu-to-liver: 0.94 ± 0.14
KB tumor-bearing mice; KB tumor-bearing mice, 30 min p.i., listed as 6R-form
  Biodistribution: Kidneys: 34.5±2.45 % IA/g
KB tumor-bearing mice; KB tumor-bearing mice, 30 min p.i., listed as 6R-tracer
  Biodistribution: Liver: 14.3±1.36 % IA/g
KB tumor-bearing mice; [5]
  Biodistribution: Blood: 2.16 ± 0.25 % IA/g
  Biodistribution: Bone: 2.43 ± 0.10 % IA/g
  Biodistribution: Feaces: 17.8 ± 5.09 % IA/g
  Biodistribution: Gall Bladder: 39.0 ± 22.17 % IA/g
  Biodistribution: Heart: 2.38 ± 0.18 % IA/g
  Biodistribution: Intestines: 6.93 ± 1.06 % IA/g
  Biodistribution: KB Tumor: 18.1 ± 2.86 % IA/g
  Biodistribution: Kidneys: 27.3 ± 3.07 % IA/g
  Biodistribution: Liver: 14.1 ± 0.80 % IA/g
  Biodistribution: Lung: 2.80 ± 0.29 % IA/g
  Biodistribution: Muscle: 1.36 ± 0.15 % IA/g
  Biodistribution: Salivary glands: 6.49 ± 0.93 % IA/g
  Biodistribution: Spleen: 8.25 ± 0.88 % IA/g
  Biodistribution: Stomach: 2.35 ± 0.49 % IA/g
KB tumor-bearing mice; [6]
  Biodistribution: Blood: 1.52 ± 0.43 % IA/g
  Biodistribution: Bone: 1.51 ± 0.34 % IA/g
  Biodistribution: Feaces: 15.2 ± 1.75 % IA/g
  Biodistribution: Gall Bladder: 26.5 ± 16.6 % IA/g
  Biodistribution: Heart: 1.60 ± 0.46 % IA/g
  Biodistribution: Intestines: 5.23 ± 0.73 % IA/g
  Biodistribution: KB Tumor: 3.41 ± 0.88 % IA/g
  Biodistribution: Kidneys: 4.80 ± 1.94 % IA/g
  Biodistribution: Liver: 9.64 ± 1.55 % IA/g
  Biodistribution: Lung: 1.73 ± 0.43 % IA/g
  Biodistribution: Muscle: 1.05 ± 0.42 % IA/g
  Biodistribution: Salivary glands: 2.61 ± 0.70 % IA/g
  Biodistribution: Spleen: 3.89 ± 0.40 % IA/g
  Biodistribution: Stomach: 2.02 ± 0.52 % IA/g
KB tumor-bearing mice; [7]
  Tu-to-blood: 8.47 ± 1.62
  Tu-to-kidney: 0.67 ± 0.14
  Tu-to-liver: 1.29 ± 0.18
KB tumor-bearing mice; [8]
  Biodistribution: Blood: 1.92 ± 0.19 % IA/g
  Biodistribution: Bone: 3.53 ± 0.90 % IA/g
  Biodistribution: Feaces: 13.1 ± 6.07 % IA/g
  Biodistribution: Gall Bladder: 56.7 ± 13.2 % IA/g
  Biodistribution: Heart: 2.39 ± 0.47 % IA/g
  Biodistribution: Intestines: 8.01 ± 2.72 % IA/g
  Biodistribution: KB Tumor: 23.9 ± 2.74 % IA/g
  Biodistribution: Kidneys: 29.8 ± 7.46 % IA/g
  Biodistribution: Liver: 16.8 ± 3.58 % IA/g
  Biodistribution: Lung: 2.92 ± 0.53 % IA/g
  Biodistribution: Muscle: 1.48 ± 0.31 % IA/g
  Biodistribution: Salivary glands: 7.31 ± 1.17 % IA/g
  Biodistribution: Spleen: 13.0 ± 4.14 % IA/g
  Biodistribution: Stomach: 2.51 ± 0.42 % IA/g
KB tumor-bearing mice; [9]
  Tu-to-blood: 12.5 ± 1.46
  Tu-to-liver: 1.46 ± 0.26
KB tumor-bearing mice; [10]
  Biodistribution: Kidneys: 29.8±7.46 % IA/g
  Biodistribution: Liver: 16.8±3.58 % IA/g
  Biodistribution: Salivary glands: 7.31±1.17 % IA/g
KB tumor-bearing mice; [11]
  Biodistribution: KB Tumor: 23.9±2.74 % IA/g
  Biodistribution: Liver: 16.8±3.58 % IA/g
  Biodistribution: Spleen: 13.0±4.14 % IA/g
KB tumor-bearing mice; blocking by pre-injection of folic acid
  Specificity of tumor binding: 85%
KB tumor-bearing mice; from 30 min p.i. to 90 min p.i.
  factor of increase of tumor-to-kidney ratio: 2.1

## Nc1nc2ncc(CNc3ccc(C(=O)N[C@@H](CCC(=O)O)C(=O)O)c(F)n3)nc2c(=O)[nH]1 [3′-aza-2′-[^18F]fluorofolic acid, reference compound]
FR-α; [12]
  IC50: 1.4 ± 0.5 nM

## Nc1nc2ncc(CNc3ccc(C(=O)N[C@@H](CCC(=O)O)C(=O)O)c([18F])n3)nc2c(=O)[nH]1 [3′-aza-2′-[^18F]fluorofolic acid, reference compound]
[2]; comparison tracer
  in vivo stability (radiometabolites): radiometabolites in the liver were detected
RT16 (FR-α)
  uptake into RT16 cells (in words): significant uptake
D4 (FR-β)
  uptake into D4 cells (in words): significant uptake
D4 (FR-β); 1 h incubation
  internalized fraction: 20%
  uptake: approximately 70%
D4 (FR-β); 3 h incubation
  uptake: ~80%

## CN1c2c(nc(N)[nH]c2=O)NCC1CNc1ccc(C(=O)NC(CCC(=O)O)C(=O)O)c(F)n1 (stereo not drawn) [Compound 6R-1, 6R-3′-Aza-2′-Fluoro-5-Methyltetrahydrofolate]
FR-α
  IC50: 27.1 ± 3.7 nM
  fold lower affinity to the FR-α compared to the oxidized form: about 17 fold

## CN1c2c(nc(N)[nH]c2=O)NC[C@H]1CNc1ccc(C(=O)N[C@@H](CCC(=O)O)C(=O)O)cc1 [Compound 6R-5-MTHF, 6R-5-MTHF, reference compound]
FR-α; [12]
  IC50: 25.8 ± 5.8 nM

## CN1c2c(nc(N)[nH]c2=O)NC[C@H]1CNc1ccc(C(=O)N[C@@H](CCC(=O)O)C(=O)O)c(F)n1 [Compound 6S-1, 6S-3′-Aza-2′-Fluoro-5-Methyltetrahydrofolate]
FR-α
  IC50: 23.8 ± 4 nM
  fold lower affinity to the FR-α compared to the oxidized form: about 17 fold

## CN1c2c([nH]c(N)nc2=O)NC[C@@H]1CNc1ccc(C(=O)N[C@@H](CCC(=O)O)C(=O)O)cc1 [Compound 6S-5-MTHF, 6S-5-MTHF, reference compound]
FR-α; [12]
  IC50: 20.6 ± 0.4 nM
